Measurements as given in patent US8758770B2 (Research Development Foundation, priority 2006, dated 2014).
Where no end group is shown, it is not given here.

Columns and labels:
Type in all cases: in vivo
[1] = system: EAE in C57BL/6 mice immunized with MOG peptide 35-55; assay: Spinal cord foci of inflammation after oral ACTH in EAE mice; conditions: Ex 1-A, control mock placebo group 4.72±0.34
Protocol: Following administration, clinical outcome is measured in at least two ways: by comparing the difference between group active treatment scores and placebo group scores from day 26-33 post immunization, and comparing group mean scores directly (day 17-35 post-immunization). Following sacrifice, spinal cords are removed and evaluated independently for foci of inflammation by a blinded observer.

[2] = Toxicity of oral ACTH administered over an extended time period; conditions: orally administered to mice over an extended time period
[3] = system: EAE in C57BL/6 mice immunized with MOG peptide 35-55; assay: Oral ACTH treatment of EAE mice, clinical score; design: key to Clinical Score: 0 = no disease to 6 = paraplegia with severe weakness/ataxia
Protocol: EAE is a T cell mediated inflammatory autoimmune process of the CNS that resembles in some aspects the human demyelinating disease multiple sclerosis. It thus provides a useful animal model for the evaluation of potential therapies for MS. […] This protocol mimics clinical practice since patients are treated with ACTHAR® Gel after they experience a clinical exacerbation of their disease, albeit clinical treatment is via intramuscular injection.
Clinical severity is graded daily by a blinded observer as follows: 0=no disease; 1=minimal or mild hind limb weakness (associated with limp tail); 2=moderate hind limb weakness or mild ataxia (waddling gait and/or poor righting ability); 3=moderate to severe hind limb weakness; 4=severe hind limb weakness or moderate ataxia; 5=paraplegia with no more than moderate four limb weakness; 6=paraplegia with severe four limb weakness or severe ataxia. […]

In the case of “SYSMEHFRWGKPVGKKRRPVKVYPDGAEDQLAEAFPLEF [ACTH]”, the “mean group inflammatory score (inflammatory foci, spinal cord)” value ([1]; 10 microgram fed group, p<0.008) was 3.05±0.3, the “mean group inflammatory score (inflammatory foci, spinal cord)” value ([1]; 1000 microgram fed group, p<0.00002) was 2.27±0.23 and the toxicity [2] was “no detectable toxicity”. For the same sequence, the “recovery from EAE attack compared to placebo, difference between group active treatment and placebo group scores” value ([3]; Ex 1-A, 10 or 1000 microgram oral dose, 10 microgram p<0.03, 1000 microgram p<0.05) was “significantly improved recovery”, the “recovery compared to placebo, comparing group mean scores directly” value ([3]; Ex 1-A, oral doses of 10, 100, and 1000 microgram) was “significantly faster recovery” and the “recovery from EAE attack compared to placebo, difference between group active treatment and group placebo scores” value ([3]; Ex 1-B, 10 IU p<0.0001, 100 IU p<0.0003, 1000 IU p<0.0007) was “significantly improved recovery”. For the same sequence, the “recovery from EAE attack compared to placebo, comparing group mean scores directly” value ([3]; Ex 1-B, oral 10 and 1000 IU, 10 IU p<0.00001, 100 IU p<0.00006, 1000 IU p<0.00003) was “significantly improved recovery”, the “Clinical Score” value ([3]; Table 1, Ex 1-A, ACTH 10 microgram oral daily, day 28, control 2.88) was 1.38 and the “Clinical Score” value ([3]; Table 1, Ex 1-A, ACTH 10 microgram oral daily, day 32, control 3) was 1.38. For the same sequence, the “Clinical Score” value ([3]; Table 1, Ex 1-A, ACTH 10 microgram oral daily, day 33, control 3) was 1.375, the “Clinical Score” value ([3]; Table 1, Ex 1-A, ACTH 10 microgram oral daily, day 35, control 3.13) was 1.38 and the “Clinical Score” value ([3]; Table 1, Ex 1-A, ACTH 100 microgram oral daily, day 22, control 2.63) was 2.5. For the same sequence, the “Clinical Score” value ([3]; Table 2, Ex 1-B, 1000 IU oral daily, day 40, control […]) was 1.13, the “Clinical Score” value ([3]; Table 2, Ex 1-B, ACTH 10 IU oral daily, day 32, control […]) was 1.38 and the “Clinical Score” value ([3]; Table 2, Ex 1-B, ACTH 10 IU oral daily, day 33, control 2) was 1. The “Clinical Score” value ([3]; Table 2, Ex 1-B, ACTH 10 IU oral daily, day 40, control […]) was 1.25, the “Clinical Score” value ([3]; Table 2, Ex 1-B, ACTH 100 IU oral daily, day 32, control […]) was 1.38 and the “Clinical Score” value ([3]; Table 2, Ex 1-B, ACTH 100 IU oral daily, day 40, control […]) was 1.38.
